These results are taken from patent US6521620B1, “Bicyclic compounds capable of inhibiting tyrosine kinases of the epidermal growth factor receptor family” (Warner-Lambert Company, priority 1994, dated 2003).

Structures are written as SMILES. Read-outs that look alike come from different tables or passages of the source. Bounds are passed on as bounds.

Assay [1] concerns the target T1, Human EGF receptor tyrosine kinase (Homo sapiens, UniProt P00533).
T1 construct: isolated from A431 human epidermoid carcinoma cells which overexpress EGF receptor; endogenous in cells; host or cells: A431 human epidermoid carcinoma cells; purified from the lysate on wheat germ agglutinin sepharose
The assay can be described thus: EGF receptor tyrosine kinase inhibition (phosphorylation of PLC-gamma 1 derived peptide). The format is biochemical. On the procedure: Purification of Epidermal Growth Factor Receptor Tyrosine Kinase—Human EGF receptor tyrosine kinase was isolated from A431 human epidermoid carcinoma cells which overexpress EGF receptor by the following methods. Cells were grown in roller bottles in 50% Delbuco's Modified Eagle and 50% HAM F-12 nutrient media (Gibco) containing 10% fetal calf serum. Approximately 10^9 cells were lysed in two volumes of buffer containing 20 mM 2-(4N-[2-hydroxyethyl]piperazin-1-yl)ethanesulfonic acid (hepes), pH 7.4, 5 mM ethylene glycol bis(2-aminoethyl ether) N,N,N′,N′-tetraacetic acid, 1% Triton X-100, 10% glycerol, 0.1 mM sodium orthovanadate, 5 mM sodium fluoride, 4 mM pyrophosphate, 4 mM benzamide, 1 mM dithiothreitol, 80 μg/mL aprotinin, 40 μg/mL leupeptin and 1 mM phenylmethylsulfonyl fluoride. After centrifugation at 25,000×g for 10 minutes, the supernatant was equilibrated for 2 h at 4° C. with 10 mL of wheat germ agglutinin sepharose that was previously equilibrated with 50 mM Hepes, […], 0.1% Triton X-100 and 150 mM NaCl, pH 7.5, (equilibration buffer). Contaminating proteins were washed from the resin with 1 M NaCl in equilibration buffer, and the enzyme was eluted with 0.5 M N-acetyl-1-D-glucosamine in equilibration buffer, followed by 1 mM urea. The enzyme was eluted with 0.1 mg/ml EGF.
The reaction was terminated by the addition of 2 mL of […] phosphoric acid and passed through a 2.5 cm phosphocellulose filter disc to bind the peptide. The filter was washed five times with 75 mM phosphoric acid and placed in a vial along with 5 mL of scintillation fluid (Ready gel Beckman).

The target in assay [2] is T2, EGF receptor (Homo sapiens, UniProt P00533).
T2 construct: EGF receptor autophosphorylation in A431 human epidermoid carcinoma; endogenous in cells; host or cells: A431 human epidermoid carcinoma cells (ATCC)
T2 sequence (P00533 25-1210): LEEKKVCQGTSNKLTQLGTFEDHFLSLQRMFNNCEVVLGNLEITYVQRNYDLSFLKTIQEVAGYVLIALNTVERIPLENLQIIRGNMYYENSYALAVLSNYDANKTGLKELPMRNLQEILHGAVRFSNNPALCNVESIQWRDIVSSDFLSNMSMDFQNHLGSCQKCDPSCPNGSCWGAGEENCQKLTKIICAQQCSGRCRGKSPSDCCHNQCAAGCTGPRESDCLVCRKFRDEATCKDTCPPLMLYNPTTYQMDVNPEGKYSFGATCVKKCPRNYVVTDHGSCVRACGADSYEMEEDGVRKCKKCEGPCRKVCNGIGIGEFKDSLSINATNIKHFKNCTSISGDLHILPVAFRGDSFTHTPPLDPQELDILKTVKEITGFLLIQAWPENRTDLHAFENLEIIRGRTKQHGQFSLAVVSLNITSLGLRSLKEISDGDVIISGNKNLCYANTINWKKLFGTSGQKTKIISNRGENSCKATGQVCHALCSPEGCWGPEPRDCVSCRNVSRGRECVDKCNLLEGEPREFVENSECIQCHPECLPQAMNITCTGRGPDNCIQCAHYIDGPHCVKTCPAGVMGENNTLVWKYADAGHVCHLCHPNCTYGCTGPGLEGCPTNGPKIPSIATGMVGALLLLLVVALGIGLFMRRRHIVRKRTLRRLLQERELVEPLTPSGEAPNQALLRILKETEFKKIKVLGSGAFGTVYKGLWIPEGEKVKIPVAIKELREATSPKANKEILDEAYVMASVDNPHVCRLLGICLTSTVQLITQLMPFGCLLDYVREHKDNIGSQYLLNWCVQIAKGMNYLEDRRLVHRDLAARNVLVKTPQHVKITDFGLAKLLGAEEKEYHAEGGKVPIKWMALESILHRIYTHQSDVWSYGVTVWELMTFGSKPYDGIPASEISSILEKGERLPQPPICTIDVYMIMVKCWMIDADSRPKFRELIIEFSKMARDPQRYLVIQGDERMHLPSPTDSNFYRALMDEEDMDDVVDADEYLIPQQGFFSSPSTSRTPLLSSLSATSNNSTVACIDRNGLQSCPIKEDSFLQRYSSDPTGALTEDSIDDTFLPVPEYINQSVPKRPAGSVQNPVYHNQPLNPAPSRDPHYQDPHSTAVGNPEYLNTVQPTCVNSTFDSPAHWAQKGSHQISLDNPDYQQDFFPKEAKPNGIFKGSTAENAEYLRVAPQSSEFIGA
The assay can be described thus: Inhibition of EGF-induced autophosphorylation in A431 epidermoid carcinoma cells. The format is cell-based. The protocol: (§1) Cells were grown to 100% confluency in 100 mm Petrie dishes (Corning). After the cells were treated for 5 minutes with either EGF (epidermal growth factor), PDGF, or bFGF (basic fibroblast growth factor) (20 ng/ml) or 1 ml of conditioned media from MDA-MB-231 cells, the media was removed and the monolayer scraped into 1 ml of ice cold lysis buffer (50 mM Hepes, pH 7.5, 150 mM NaCl, 10% glycerol, 1% triton X-100, 1 mM EDTA, 1 mM EGTA, 10 mM sodium pyrophosphate, 30 mM p-nitrophenyl phosphate, 1 mM orthovanadate, 50 mM sodium fluoride, 1 mM phenylmethylsulfonylfluoride, 10 μg/ml of aprotinin, and 10 μg/ml of leupeptin). The lysate was transferred to a microfuge tube (small centrifuge that holds 1-2 ml plastic centrifuge tubes), allowed to sit on ice 15 minutes and centrifuged 5 minutes at 10,000×g. The supernatant was transferred to a clean microfuge tube and 5 μg of antibody was added to designated samples. The tubes were rotated for 2 hours at […] after which 25 μl of protein A sepharose was added and then rotation continued for at least 2 more hours. The protein A separose was washed 5 times with 50 mM Hepes, pH 7.5, 150 mM NaCl, 10% glycerol and 0.02% sodium azide. […] The extract were transferred to a microfuge tube and heated to 100° C. for 5 minutes. […] Proteins in the gel were electrophoretically transferred to nitrocellulose and the membrane was washed once in 10 mM Tris buffer, pH 7.2, 150 mM NaCl, 0.01% Azide (TNA) and blocked overnight in TNA containing 5% bovine serum albumin and 1% ovalbumin (blocking buffer). The membrane was blotted for 2 hours with the primary antibody (1 μg/ml in blocking buffer) and then washed 2 times sequentially in TNA, TNA containing 0.05% Tween-20 and 0.05% Nonidet P-40 (commercially available detergent) and TNA.

The subject of assay [3] is erbB-2, 3, 4. Put plainly: Inhibition of conditioned media-induced autophosphorylation in SK-BR-3 breast tumor cells. The format is cell-based, human. On the procedure: as §1
Assay [4] deals with B104-1-1 - NIH-3T3 fibroblasts transfected by the neu oncogene. Put plainly: Growth inhibition assay (antiproliferative), B104-1-1. The format is cell-based. The following applies: Mus musculus; B104-1-1 cells.
The test system of assay [5] is SK-BR-3 - Human breast carcinoma overexpressing erbB-2 and erbB-3. The assay can be described thus: Growth inhibition assay (antiproliferative), SK-BR-3. The format is cell-based. The following applies: SK-BR-3 cells.
Assay [6] has as its system MDA-468 - Human breast carcinoma overexpressing the EGF receptor. The assay can be described thus: cells. The following applies: read-out: Antiproliferative IC50 (nM). The protocol: To obtain conditioned medium, MDA-MB-231 cells were grown to confluency in an 850 cm^2 roller bottle and the medium-replaced with 50 ml of serum-free medium. After 3 days the conditioned medium was removed, frozen down in aliquots and used as a heregulin source to stimulate erbB-2, 3, 4.
Cells (2×10^4) were seeded in 24-well plates (1.7×1.6 cm, flat bottom) in two mls of medium with or without various concentrations of drug. Plates were incubated for 3 days at 37° in a humidified atmosphere containing 5% CO2 in air. Cell growth was determined by cell count with a Coulter Model AM electronic cell counter (Coulter Electronics, Inc., Hialeah, Fla.).

Assay [7] relates to c-jun mRNA. Put plainly: Growth factor dependent expression of c-jun mRNA in Swiss 3T3 (Northern blot). The format is cell-based, mouse. Particulars: Swiss 3T3 cells, EGF-stimulated (FIG. 7). On the procedure:
Total cellular RNA was isolated from untreated control or treated Swiss 3T3 cells using RNAzol-B (trademark of Tel Test Inc. for a kit used to isolate RNA from tissues) and adhered to the protocol described by the manufacturer. Forty to fifty μg of RNA was loaded onto a 1% agarose gel and electrophoresis carried out for 3-4 hours at 65 volts. The RNA in the gel was transferred by capillary action to a nylon membrane (Hybond-N, Amersham). The 40 mer c-jun probe was end labeled with [^32p]ATP using […] (Promega) and purified on a G25 sephadex column according to the procedure recommended by the supplier, Oncogene Science. Hybridization was performed overnight at 65° C. (c-jun is an immediate early transcription factor; it is one of the components of AP-1 while FOS is the second component of AP-1.
Gel of Example 40 (FIG. 7) detects mRNA-for c-jun by hybridization with a specific radiolabelled RNA probe for c-jun.

In assay [8] the test system is p39^c-jun. Put plainly: Growth factor mediated expression of p39 c-jun in Swiss 3T3 (Western blot). The format is cell-based, mouse. The protocol: Monoclonal antibodies raised to the PDGF ([…]) receptor or phosphotyrosine were from Upstate Biotechnology, Inc., Lake Placid, N.Y. Anti-pp39^jun (antibody to the transcription factor c-jun, which is a 39 kDalton phosphoprotein) and anti-EGF receptor antibodies were from Oncogene Science, Uniondale, N.Y.
Cells were grown to 100% confluency in 100 mm Petrie dishes (Corning). After the cells were treated for 5 minutes with either EGF (epidermal growth factor), PDGF, or bFGF (basic fibroblast growth factor) (20 ng/ml) or 1 ml of conditioned media from MDA-MB-231 cells, the media was removed and the monolayer scraped into 1 ml of ice cold lysis buffer (50 mM Hepes, pH 7.5, 150 mM NaCl, 10% glycerol, 1% triton X-100, 1 mM EDTA, 1 mM EGTA, 10 mM sodium pyrophosphate, 30 mM p-nitrophenyl phosphate, 1 mM orthovanadate, 50 mM sodium fluoride, 1 mM phenylmethylsulfonylfluoride, 10 μg/ml of aprotinin, and 10 μg/ml of leupeptin). The lysate was transferred to a microfuge tube (small centrifuge that holds 1-2 ml plastic centrifuge tubes), allowed to sit on ice 15 minutes and centrifuged 5 minutes at 10,000×g. The supernatant was transferred to a clean microfuge tube and 5 μg of antibody was added to designated samples. The tubes were rotated for 2 hours at […] after which 25 μl of protein A sepharose was added and then rotation continued for at least 2 more hours. The protein A separose was washed 5 times with 50 mM Hepes, pH 7.5, 150 mM NaCl, 10% glycerol and 0.02% sodium azide. The precipitates were resuspended with 30 μl of Laemlli buffer (Laemmli, […], pp. 680-685, 1970), heated to 100° C. for 5 minutes and centrifuged to obtain the supernatant. Whole cell extracts were made by scraping cells grown in the wells of 6 well plates into 0.2 ml of boiling Laemmli buffer. The extract were transferred to a microfuge tube and heated to 100° C. for 5 minutes. […]
Background: Immunoblotting shows a protein as a band on a membrane.

Assay [9] deals with NIH 3T3 mouse fibroblast line, transfected with the human EGFR gene. The assay can be described thus: Morphology of EGF-treated NIH 3T3 fibroblasts transfected with the human EGFR gene. The following applies: 100 ng/mL of EGF and 5 μm of compound (FIG. 17). The format is cell-based. On the procedure:
FIG. 15 is a photograph of an NIH 3T3 mouse fibroblast line, transfected with the human EGFR gene showing a normal flattened morphology;
FIG. 16 is a photograph of the same cell line treated with 100 ng/mL of EGF showing a typical spindly transformed morphology; and […]

The mark [10] stands for this setting: Table 1, values in pM, read-out: EGF Receptor Tyrosine Kinase Inhibition IC50.
Setting [11] is: enzyme value repeated in the autophosphorylation table, read-out: EGFR IC50.
The mark [12] stands for this setting: SK-BR-3 cells, read-out: SKBR-3 IC50.
Setting [13] is: Table 1, values in nM, read-out: EGF Receptor Tyrosine Kinase Inhibition IC50.

T1 sequence (P00533 25-1210): as above

As to `CNc1cc2c(Nc3cccc(Br)c3)ncnc2cn1` [Example 60, 4-(3-Bromoanilino)-6-methylaminopyrido[3,4-d]pyrimidine], the IC50 in assay [1] (setting [10]) is 8 pM; in assay [1] (setting [11]), 8 pM; in assay [2], 13 nM; in assay [3] (setting [12]), less than 10 nM; in assay [4], 2100 nM; in [5], 600 nM. For the same compound, the IC50 in assay [6] was found to be 3000 nM.
For `Nc1cc2ncnc(NCc3ccccc3)c2cn1` [Example 40, 7-Amino-4-benzylaminopyrido[4 3-d]pyrimidine], the IC50 in [1] (setting [13]) worked out at 578000 pM. Moreover, the “c-jun mRNA production” value in [7] is “blocks this production for EGF-stimulated cells”. For the same compound, the “c-jun expression (p39 c-jun protein)” value in assay [8] (Swiss 3T3, stimulated by EGF (FIG. 8)) was “block c-jun expression”; in assay [8] (Swiss 3T3, stimulated by PDGF (FIG. 8)), “not when stimulated by PDGF or b-FGF”; in [8] (Swiss 3T3, stimulated by b-FGF (FIG. 8)), “not when stimulated by PDGF or b-FGF”.
`Nc1cc2ncnc(Nc3cccc(Br)c3)c2cn1` [Example 27, 7-Amino-4-(3-bromoanilino)pyrido[4,3-d]pyrimidine]: the IC50 in assay [1] (setting [13]) was 10000 pM; in [1] (setting [11]), 10000 pM; in assay [2], 110 nM; in assay [3] (setting [12]), roughly 800 nM. Moreover, the cell morphology entry in assay [9] is “morphology reverted from the transformed type back to the normal type”.
Regarding `CN(C)c1cc2c(Nc3cccc(Br)c3)ncnc2cn1` [Example 61, 4-(3-Bromoanilino)-6-dimethylaminopyrido[3,4-d]pyrimidine], the IC50 in assay [1] (setting [10]) amounted to 6 pM; in [1] (setting [11]), 6 pM; in assay [2] it was 21 nM; in [3] (read-out: SKBR-3 IC50 nM, SK-BR-3 cells), 39 nM; in assay [4], 1000 nM; in assay [5] it was 900 nM. Further, in assay [6], the IC50 was determined as 12000 nM.

As usually defined, the IC50 is the concentration needed to halve the response being measured.
